Tests used:
Salmonella typhimurium [1] = assay: Mutagenicity in Salmonella typhimurium TA98 in absence of rat liver S9 fraction by Ames test; format: toxicity, organism-based; conditions: salmonella enterica subsp. enterica serovar typhimurium
Salmonella typhimurium [2] = assay: Mutagenicity in Salmonella typhimurium TA1535 in absence of rat liver S9 fraction by Ames test; format: toxicity, organism-based; conditions: salmonella enterica subsp. enterica serovar typhimurium
CHO-K1 [3] = assay: Genotoxicity in CHOK1 cells in presence of rat liver S9 fraction by fluorescence imaging based micronucleus assay; format: toxicity, cell-based, Cricetulus griseus; conditions: chinese hamster
CHO-K1 [4] = assay: Genotoxicity in CHOK1 cells in absence of rat liver S9 fraction by fluorescence imaging based micronucleus assay; format: toxicity, cell-based, Cricetulus griseus; conditions: chinese hamster
[5] = target: Adenosine receptor A3 (Homo sapiens) (UniProt P0DMS8); assay: Binding affinity to recombinant human A3 receptor at 10 uM after 120 mins by scintillation counting analysis relative to control
[6] = target: Type-2 angiotensin II receptor (Homo sapiens) (UniProt P50052); assay: Binding affinity to recombinant human AT2 receptor at 10 uM after 240 mins by scintillation counting analysis relative to control
[7] = target: Translocator protein (Homo sapiens) (UniProt P30536); assay: Binding affinity to peripheral-type benzodiazepine receptor (unknown origin) at 10 uM relative to control
[8] = target: Cholecystokinin receptor type A (Homo sapiens) (UniProt P32238); assay: Binding affinity to recombinant human CCK1 at 10 uM after 60 mins by scintillation counting analysis relative to control
[9] = target: D(3) dopamine receptor (Homo sapiens) (UniProt P35462); assay: Binding affinity to recombinant human dopamine receptor D3 at 10 uM after 60 mins by scintillation counting analysis relative to control
[10] = target: Melanocortin receptor 4 (Homo sapiens) (UniProt P32245); assay: Binding affinity to recombinant human MC4 receptor at 10 uM after 120 mins by scintillation counting analysis relative to control
[11] = target: Melatonin receptor type 1A (Homo sapiens) (UniProt P48039); assay: Binding affinity to recombinant human MT1 receptor at 10 uM after 240 mins by scintillation counting analysis relative to control
[12] = target: Muscarinic acetylcholine receptor M3 (Homo sapiens) (UniProt P20309); assay: Binding affinity to recombinant human muscarinic M3 receptor at 10 uM after 60 mins by scintillation counting analysis relative to control
[13] = target: Substance-K receptor (Homo sapiens) (UniProt P21452); assay: Binding affinity to recombinant human NK2 receptor at 10 uM after 60 mins by scintillation counting analysis relative to control
[14] = target: Neuropeptide Y receptor type 2 (Homo sapiens) (UniProt P49146); assay: Binding affinity to human Y2 receptor at 10 uM after 60 mins by scintillation counting analysis relative to control
[15] = target: Neurotensin receptor type 1 (Homo sapiens) (UniProt P30989); assay: Binding affinity to recombinant human NT1 receptor at 10 uM after 60 mins by scintillation counting analysis relative to control
[16] = target: Nociceptin receptor (Homo sapiens) (UniProt P41146); assay: Binding affinity to recombinant human NOP receptor at 10 uM after 60 mins by scintillation counting analysis relative to control
[17] = target: Prostaglandin E2 receptor EP2 subtype (Homo sapiens) (UniProt P43116); assay: Binding affinity to recombinant human EP2 receptor at 10 uM after 120 mins by scintillation counting analysis relative to control
[18] = target: Prostacyclin receptor (Homo sapiens) (UniProt P43119); assay: Binding affinity to recombinant human IP receptor at 10 uM after 60 mins by scintillation counting analysis relative to control
[19] = target: 5-hydroxytryptamine receptor 7 (Homo sapiens) (UniProt P34969); assay: Binding affinity to recombinant human 5-HT7 receptor at 10 uM after 120 mins by scintillation counting analysis relative to control
[20] = target: Vasopressin V1a receptor (Homo sapiens) (UniProt P37288); assay: Binding affinity to recombinant human V1A receptor at 10 uM after 60 mins by scintillation counting analysis relative to control
Homo sapiens = organism: Homo sapiens; assay: Binding affinity to sodium channel (unknown origin) at 10 uM relative to control
[21] = target: Secretory phospholipase A2 receptor (Homo sapiens) (UniProt Q13018); assay: Binding affinity to recombinant human sPLA2 receptor at 10 uM after 20 mins by spectrophotometric analysis relative to control
[22] = target: 3',5'-cyclic-AMP phosphodiesterase 4D (Homo sapiens) (UniProt Q08499); assay: Binding affinity to recombinant human PDE4D2 at 10 uM after 20 mins by scintillation counting analysis relative to control
[23] = target: cGMP-specific 3',5'-cyclic phosphodiesterase (Homo sapiens) (UniProt O76074); assay: Binding affinity to human PDE5 at 10 uM after 60 mins by scintillation counting analysis relative to control
[24] = target: Angiotensin-converting enzyme (Homo sapiens) (UniProt P12821); assay: Binding affinity to ACE (unknown origin) at 10 uM relative to control
[25] = target: Angiotensin-converting enzyme 2 (Homo sapiens) (UniProt Q9BYF1); assay: Binding affinity to recombinant human ACE-2 at 10 uM after 20 mins by fluorescence assay relative to control
[26] = target: Beta-secretase 2 (Homo sapiens) (UniProt Q9Y5Z0); assay: Binding affinity to BACE-2 (unknown origin) at 10 uM relative to control
[27] = target: Endothelin-converting enzyme 1 (Homo sapiens) (UniProt P42892); assay: Binding affinity to ECE-1 (unknown origin) at 10 uM relative to control
[28] = target: Interstitial collagenase (Homo sapiens) (UniProt P03956); assay: Binding affinity to human MMP1 at 10 uM after 20 mins by fluorescence assay relative to control
[29] = target: Neprilysin (Homo sapiens) (UniProt P08473); assay: Binding affinity to neutral endopeptidase (unknown origin) at 10 uM by relative to control
[30] = target: Procathepsin L (Homo sapiens) (UniProt P07711); assay: Binding affinity to human cathepsin L at 10 uM after 30 mins by fluorescence assay relative to control
[31] = target: Tyrosine-protein phosphatase non-receptor type 1 (Homo sapiens) (UniProt P18031); assay: Binding affinity to recombinant human phosphatase 1B at 10 uM after 30 mins by fluorescence assay relative to control
[32] = target: M-phase inducer phosphatase 1 (Homo sapiens) (UniProt P30304); assay: Binding affinity to recombinant human phosphatase CDC25A at 10 uM after 20 mins by fluorescence assay relative to control
[33] = target: Proto-oncogene tyrosine-protein kinase Src (Homo sapiens) (UniProt P12931); assay: Binding affinity to recombinant human Src at 10 uM after 10 mins by LANCE assay relative to control
[34] = target: Centromere-associated protein E (Homo sapiens) (UniProt Q02224); assay: Binding affinity to recombinant human CENPE at 10 uM after 30 mins by spectrophotometric analysis relative to control
[35] = target: Histone deacetylase 3 (Homo sapiens) (UniProt O15379); assay: Binding affinity to recombinant human HDAC3 at 10 uM after 10 mins by fluorescence analysis relative to control
[36] = target: Histone deacetylase 11 (Homo sapiens) (UniProt Q96DB2); assay: Binding affinity to recombinant human HDAC11 at 10 uM after 30 mins by fluorescence analysis relative to control
Sequence of Histone deacetylase 11 (Homo sapiens) (Q96DB2 whole entry): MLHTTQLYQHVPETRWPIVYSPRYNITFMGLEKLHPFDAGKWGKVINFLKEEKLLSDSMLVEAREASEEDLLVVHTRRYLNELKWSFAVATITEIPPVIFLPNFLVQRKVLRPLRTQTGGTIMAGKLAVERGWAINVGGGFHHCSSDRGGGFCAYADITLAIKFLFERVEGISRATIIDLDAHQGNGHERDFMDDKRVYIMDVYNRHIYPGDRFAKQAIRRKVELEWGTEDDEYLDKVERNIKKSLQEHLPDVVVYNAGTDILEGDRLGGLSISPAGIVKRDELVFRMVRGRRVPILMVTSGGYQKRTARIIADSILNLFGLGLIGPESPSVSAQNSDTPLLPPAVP

Sequence of Nociceptin receptor (Homo sapiens) (P41146 whole entry): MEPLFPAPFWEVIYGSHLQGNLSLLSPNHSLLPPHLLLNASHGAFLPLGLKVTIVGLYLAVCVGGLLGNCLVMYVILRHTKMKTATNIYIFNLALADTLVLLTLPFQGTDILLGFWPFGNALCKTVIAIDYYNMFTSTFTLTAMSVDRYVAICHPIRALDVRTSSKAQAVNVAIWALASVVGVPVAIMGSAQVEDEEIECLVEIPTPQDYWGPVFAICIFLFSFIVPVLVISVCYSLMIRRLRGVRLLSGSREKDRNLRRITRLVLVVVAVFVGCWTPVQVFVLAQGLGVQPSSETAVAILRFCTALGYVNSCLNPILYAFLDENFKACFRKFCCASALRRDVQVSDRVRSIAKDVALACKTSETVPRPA
Sequence of Neurotensin receptor type 1 (Homo sapiens) (P30989 whole entry): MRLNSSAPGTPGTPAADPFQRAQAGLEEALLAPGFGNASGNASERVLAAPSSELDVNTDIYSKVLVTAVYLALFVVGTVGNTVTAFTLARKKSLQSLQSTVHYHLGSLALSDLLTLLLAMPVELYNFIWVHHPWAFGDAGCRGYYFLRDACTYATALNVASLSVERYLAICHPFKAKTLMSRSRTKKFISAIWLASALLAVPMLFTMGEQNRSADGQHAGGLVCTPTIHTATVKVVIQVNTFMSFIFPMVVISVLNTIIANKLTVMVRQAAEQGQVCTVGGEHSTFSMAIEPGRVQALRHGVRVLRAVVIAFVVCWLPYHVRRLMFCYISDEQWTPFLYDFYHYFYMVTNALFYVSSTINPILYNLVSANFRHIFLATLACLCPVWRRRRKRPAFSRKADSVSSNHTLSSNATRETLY
Sequence of Vasopressin V1a receptor (Homo sapiens) (P37288 whole entry, looked up): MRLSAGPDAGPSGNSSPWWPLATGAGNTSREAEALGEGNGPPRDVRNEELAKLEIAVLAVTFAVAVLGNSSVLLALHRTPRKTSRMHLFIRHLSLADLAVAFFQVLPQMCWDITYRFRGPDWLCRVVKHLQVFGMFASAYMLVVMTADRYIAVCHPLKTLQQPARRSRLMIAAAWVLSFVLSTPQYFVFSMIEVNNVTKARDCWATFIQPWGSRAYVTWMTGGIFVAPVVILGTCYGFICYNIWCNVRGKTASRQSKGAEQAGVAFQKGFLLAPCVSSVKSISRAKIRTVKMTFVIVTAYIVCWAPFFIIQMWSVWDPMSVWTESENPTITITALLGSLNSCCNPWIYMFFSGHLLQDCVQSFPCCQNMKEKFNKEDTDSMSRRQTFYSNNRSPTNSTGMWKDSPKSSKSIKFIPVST
Sequence of Adenosine receptor A3 (Homo sapiens) (P0DMS8 whole entry): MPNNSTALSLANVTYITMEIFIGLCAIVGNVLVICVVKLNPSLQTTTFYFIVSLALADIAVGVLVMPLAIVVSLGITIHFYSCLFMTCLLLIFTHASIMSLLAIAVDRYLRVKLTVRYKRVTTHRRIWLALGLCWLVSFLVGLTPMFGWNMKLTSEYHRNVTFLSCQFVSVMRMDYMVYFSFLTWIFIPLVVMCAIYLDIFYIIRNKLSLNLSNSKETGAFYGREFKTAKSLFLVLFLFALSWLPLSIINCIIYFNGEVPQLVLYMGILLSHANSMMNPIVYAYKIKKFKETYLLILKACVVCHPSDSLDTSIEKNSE
Sequence of Translocator protein (Homo sapiens) (P30536 whole entry): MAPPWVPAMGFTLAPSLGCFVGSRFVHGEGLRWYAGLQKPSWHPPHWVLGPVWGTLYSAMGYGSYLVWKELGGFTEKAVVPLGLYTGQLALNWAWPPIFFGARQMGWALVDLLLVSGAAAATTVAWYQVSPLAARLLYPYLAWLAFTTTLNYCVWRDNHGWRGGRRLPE
Sequence of 3',5'-cyclic-AMP phosphodiesterase 4D (Homo sapiens) (Q08499 whole entry): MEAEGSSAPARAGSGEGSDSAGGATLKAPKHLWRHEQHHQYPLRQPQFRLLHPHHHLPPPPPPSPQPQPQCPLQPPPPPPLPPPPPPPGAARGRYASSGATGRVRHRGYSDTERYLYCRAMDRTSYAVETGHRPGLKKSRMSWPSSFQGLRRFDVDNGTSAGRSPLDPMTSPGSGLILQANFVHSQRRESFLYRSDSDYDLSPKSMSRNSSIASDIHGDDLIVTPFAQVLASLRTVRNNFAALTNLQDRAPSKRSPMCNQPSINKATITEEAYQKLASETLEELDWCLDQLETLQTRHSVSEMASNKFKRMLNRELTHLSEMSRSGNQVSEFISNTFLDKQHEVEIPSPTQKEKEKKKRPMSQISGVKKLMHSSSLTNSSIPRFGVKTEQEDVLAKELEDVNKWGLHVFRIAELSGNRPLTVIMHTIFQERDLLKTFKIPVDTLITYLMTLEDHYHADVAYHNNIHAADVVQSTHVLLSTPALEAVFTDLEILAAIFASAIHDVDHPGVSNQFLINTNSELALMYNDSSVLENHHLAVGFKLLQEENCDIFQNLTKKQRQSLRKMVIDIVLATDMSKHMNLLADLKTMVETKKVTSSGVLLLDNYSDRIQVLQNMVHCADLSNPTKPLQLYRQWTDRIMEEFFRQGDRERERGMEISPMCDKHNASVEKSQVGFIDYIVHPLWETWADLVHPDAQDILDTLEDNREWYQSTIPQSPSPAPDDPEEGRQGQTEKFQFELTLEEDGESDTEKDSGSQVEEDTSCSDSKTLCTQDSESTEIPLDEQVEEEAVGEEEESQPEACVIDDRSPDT
Sequence of Cholecystokinin receptor type A (Homo sapiens) (P32238 whole entry): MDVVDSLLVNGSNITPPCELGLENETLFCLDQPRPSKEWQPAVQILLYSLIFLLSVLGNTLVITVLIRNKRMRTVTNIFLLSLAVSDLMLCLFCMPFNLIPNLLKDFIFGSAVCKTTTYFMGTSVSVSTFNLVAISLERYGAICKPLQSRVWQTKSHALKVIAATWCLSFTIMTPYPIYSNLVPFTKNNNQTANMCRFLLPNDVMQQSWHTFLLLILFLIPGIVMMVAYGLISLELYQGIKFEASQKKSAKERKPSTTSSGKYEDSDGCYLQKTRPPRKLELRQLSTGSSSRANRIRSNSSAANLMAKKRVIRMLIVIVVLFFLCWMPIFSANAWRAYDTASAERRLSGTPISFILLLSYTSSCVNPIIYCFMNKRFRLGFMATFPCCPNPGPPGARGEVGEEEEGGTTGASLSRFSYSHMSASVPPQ
Sequence of Melatonin receptor type 1A (Homo sapiens) (P48039 whole entry): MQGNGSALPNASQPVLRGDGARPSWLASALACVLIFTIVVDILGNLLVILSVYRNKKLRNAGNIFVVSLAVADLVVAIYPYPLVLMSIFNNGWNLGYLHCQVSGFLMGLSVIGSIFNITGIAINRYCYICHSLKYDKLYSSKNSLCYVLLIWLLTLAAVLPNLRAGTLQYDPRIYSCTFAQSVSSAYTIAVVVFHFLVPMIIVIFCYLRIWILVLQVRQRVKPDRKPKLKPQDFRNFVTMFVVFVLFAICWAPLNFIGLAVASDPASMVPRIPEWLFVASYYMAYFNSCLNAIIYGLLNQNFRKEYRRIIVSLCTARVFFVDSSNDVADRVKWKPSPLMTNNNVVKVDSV
Sequence of Beta-secretase 2 (Homo sapiens) (Q9Y5Z0 whole entry): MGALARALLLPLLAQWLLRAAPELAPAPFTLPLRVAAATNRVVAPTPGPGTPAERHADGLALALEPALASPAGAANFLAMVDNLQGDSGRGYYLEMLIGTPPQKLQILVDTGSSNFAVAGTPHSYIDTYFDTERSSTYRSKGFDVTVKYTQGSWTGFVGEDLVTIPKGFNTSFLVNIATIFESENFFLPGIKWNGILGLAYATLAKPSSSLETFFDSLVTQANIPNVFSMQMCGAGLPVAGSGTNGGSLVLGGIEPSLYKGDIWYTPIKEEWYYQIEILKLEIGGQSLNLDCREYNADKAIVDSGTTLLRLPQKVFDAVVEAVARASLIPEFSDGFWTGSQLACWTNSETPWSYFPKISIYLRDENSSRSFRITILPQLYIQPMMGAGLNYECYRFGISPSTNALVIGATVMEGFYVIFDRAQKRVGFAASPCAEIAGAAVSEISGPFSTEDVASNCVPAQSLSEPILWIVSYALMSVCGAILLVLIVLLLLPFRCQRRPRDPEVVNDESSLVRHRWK
Sequence of Substance-K receptor (Homo sapiens) (P21452 whole entry): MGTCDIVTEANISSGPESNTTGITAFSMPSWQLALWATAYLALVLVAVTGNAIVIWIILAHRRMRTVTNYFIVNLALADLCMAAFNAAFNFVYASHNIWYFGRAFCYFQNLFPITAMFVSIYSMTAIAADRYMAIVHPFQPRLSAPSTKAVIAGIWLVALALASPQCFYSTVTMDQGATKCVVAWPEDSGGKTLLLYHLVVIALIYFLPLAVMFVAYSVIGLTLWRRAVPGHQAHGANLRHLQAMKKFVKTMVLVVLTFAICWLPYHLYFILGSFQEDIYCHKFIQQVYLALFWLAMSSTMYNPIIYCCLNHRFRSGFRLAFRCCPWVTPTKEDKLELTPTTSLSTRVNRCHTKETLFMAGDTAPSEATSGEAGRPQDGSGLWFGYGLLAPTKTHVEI
Sequence of Neuropeptide Y receptor type 2 (Homo sapiens) (P49146 whole entry): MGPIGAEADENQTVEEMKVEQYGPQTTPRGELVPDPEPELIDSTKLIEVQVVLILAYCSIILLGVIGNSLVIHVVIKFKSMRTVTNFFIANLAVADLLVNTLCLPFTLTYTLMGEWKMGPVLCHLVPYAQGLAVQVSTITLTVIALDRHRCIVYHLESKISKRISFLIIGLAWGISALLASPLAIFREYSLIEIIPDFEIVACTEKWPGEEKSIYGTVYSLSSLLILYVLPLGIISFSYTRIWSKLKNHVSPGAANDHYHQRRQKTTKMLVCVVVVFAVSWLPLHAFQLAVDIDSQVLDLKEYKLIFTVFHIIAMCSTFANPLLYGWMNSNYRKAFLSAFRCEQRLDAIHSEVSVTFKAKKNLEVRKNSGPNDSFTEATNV

CCOc1c(Cl)cc(C(=O)Nc2ccc(C(=O)O)c(C)c2)cc1OC(C)C
Activity (Salmonella typhimurium [1]): Non-Toxic
Activity (Salmonella typhimurium [2]): Non-Toxic
Activity (CHO-K1 [3]): Non-Toxic
Activity (CHO-K1 [4]): Non-Toxic
Activity [5]: < 25%
Activity [6]: < 25%
Activity [7]: < 25%
Activity [8]: < 25%
Activity [9]: < 25%
Activity [10]: < 25%
Activity [11]: < 25%
Activity [12]: < 25%
Activity [13]: < 25%
Activity [14]: < 25%
Activity [15]: < 25%
Activity [16]: < 25%
Activity [17]: < 25%
Activity [18]: < 25%
Activity [19]: < 25%
Activity [20]: < 25%
Activity (Homo sapiens): < 25%
Activity [21]: < 25%
Activity [22]: < 25%
Activity [23]: < 25%
Activity [24]: < 25%
Activity [25]: < 25%
Activity [26]: < 25%
Activity [27]: < 25%
Activity [28]: < 25%
Activity [29]: < 25%
Activity [30]: < 25%
Activity [31]: < 25%
Activity [32]: < 25%
Activity [33]: < 25%
Activity [34]: < 25%
Activity [35]: < 25%
Activity [36]: < 25%
